Laboratory results: US20240254087A1, “SELECTIVE, PARTIAL, AND ARRESTIN-BIASED 5-HT2A AGONISTS WITH UTILITY IN VARIOUS DISORDERS” (Saint Joseph's University, priority 2021, published 2024)

Assays:
[1] = molecular target: T1, 5-HT2A (Homo sapiens, UniProt P28223); assay: cell-based; parameters: expressed in transfected cells; host or cells: HEK293T, transient; details: for Emax: read-out: 5-HT2A Gq Emax (% 5-HT), BRET, mean ± SEM
[2] = molecular target: T1, 5-HT2A; assay: [3H]-ketanserin displacement, 5-HT2A membranes; type: binding; parameters: ES-313-M400UA (membranes); host or cells: CHO-K1; details: [3H]-ketanserin displacement (n = 2); read-out: 5-HT2A pKi Mean ± SEM (converted)
[3] = molecular target: T1, 5-HT2A; assay: cell-based; parameters: expressed in transfected cells; host or cells: HEK293T, transient; details: for Emax: read-out: 5-HT2A β-arrestin Emax (% 5-HT), BRET, mean ± SEM
[4] = molecular target: T2, 5-HT2C (Homo sapiens, UniProt P28335); assay: Ca2+ flux assay, 5-HT2C; type: cell-based; parameters: expressed in transfected cells
T2 sequence (P28335 33-458): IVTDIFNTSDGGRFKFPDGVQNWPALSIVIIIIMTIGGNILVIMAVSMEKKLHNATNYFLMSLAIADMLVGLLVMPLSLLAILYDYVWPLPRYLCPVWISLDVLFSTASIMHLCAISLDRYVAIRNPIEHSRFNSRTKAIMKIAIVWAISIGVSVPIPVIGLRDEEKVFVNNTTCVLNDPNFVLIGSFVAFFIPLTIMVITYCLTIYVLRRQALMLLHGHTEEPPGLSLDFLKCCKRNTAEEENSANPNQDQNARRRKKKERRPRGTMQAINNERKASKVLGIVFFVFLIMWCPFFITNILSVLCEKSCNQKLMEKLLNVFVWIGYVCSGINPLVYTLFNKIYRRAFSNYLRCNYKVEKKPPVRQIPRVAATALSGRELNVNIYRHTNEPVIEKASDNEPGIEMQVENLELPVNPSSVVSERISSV
Protocol: (§1) Cell lines were maintained in DMEM containing 10% FBS, 10 μg/mL Blasticidin (Invivogen), and 100 μg/mL Hygromycin B (GoldBio). At least 20-24 hours before the assay, receptor expression was induced with tetracycline ([…]) and cells were seeded into 384-well poly-L-lysine-coated black plates at a density of 7,500 cells/well in DMEM containing 1% dialyzed FBS. On the day of the assay, the cells were incubated for 1 h at 37° C. with Fluo-4 Direct dye (Invitrogen, 20 μl/well) reconstituted in drug buffer (20 mM HEPES-buffered HBSS, pH 7.4) containing 2.5 mM probenecid. Drug dilutions were prepared at 5X final concentration in McCorvy buffer (20 mM HEPES-buffered HBSS, 0).1% BSA, 0.01% ascorbic acid pH 7.4). After dye load, cells were allowed to equilibrate to room temperature for 15 minutes, and then placed in a FLIPR^TETRA fluorescence imaging plate reader (Molecular Devices). Fluorescence for the FLIPR^TETRA were programmed to read baseline fluorescence for 10 s (1 read/s), and afterward 5 μl of drug per well was added and read for a total of 5-10 min (1 read/s). Fluorescence in each well was normalized to the average of the first 10 reads for baseline fluorescence, and then either maximum-fold peak increase over basal or area under the curve (AUC) was calculated. […] Data was plotted and non-linear regression was performed using “log(agonist) vs. response” in Graphpad Prism 8 to yield Emax and EC50 parameter estimates.

[5] = molecular target: 5-HT5a (Homo sapiens, UniProt P47898); assay: Competitive radioligand binding (NIMH PDSP)
Protocol: (§2) Method 1: Competitive binding experiments were performed by the National Institute of Mental Health Psychoactive Drug Screening Program (NIMH PDSP) using described methods or 5-HT2A experiments performed using [3H]-ketanserin displacement in human 5-HT2A expressing membranes. Target compounds were dissolved in DMSO and an initial screen performed to assess displacement of the radioligand from target receptors at a concentration of 10,000 nM. […] For the Ki experiments, compounds were always tested in triplicate on separate plates. Each plate also contained a known ligand for the receptor as a positive control.

[6] = molecular target: 5-HT6 (Homo sapiens, UniProt P50406); assay: Competitive radioligand binding (NIMH PDSP)
Protocol: as §2

[7] = molecular target: T3, 5-HT3 (Homo sapiens, UniProt P46098); assay: Competitive radioligand binding (NIMH PDSP)
T3 sequence (P46098 24-478): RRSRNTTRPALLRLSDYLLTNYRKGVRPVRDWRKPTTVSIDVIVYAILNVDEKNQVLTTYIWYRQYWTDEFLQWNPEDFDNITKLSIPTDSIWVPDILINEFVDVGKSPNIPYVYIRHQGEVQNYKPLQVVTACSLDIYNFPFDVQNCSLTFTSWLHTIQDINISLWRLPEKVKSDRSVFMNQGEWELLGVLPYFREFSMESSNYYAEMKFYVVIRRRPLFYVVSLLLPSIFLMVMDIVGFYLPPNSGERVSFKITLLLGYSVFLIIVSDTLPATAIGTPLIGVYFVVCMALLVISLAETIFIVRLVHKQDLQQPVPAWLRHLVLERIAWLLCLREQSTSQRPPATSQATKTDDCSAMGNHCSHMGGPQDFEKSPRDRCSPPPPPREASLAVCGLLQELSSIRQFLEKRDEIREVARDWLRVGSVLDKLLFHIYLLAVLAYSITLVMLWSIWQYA
Protocol: as §2

[8] = molecular target: 5-HT1B (Homo sapiens, UniProt P28222); assay: Competitive radioligand binding (NIMH PDSP)
Protocol: as §2

[9] = molecular target: 5-HT1e (Homo sapiens, UniProt P28566); assay: Competitive radioligand binding (NIMH PDSP)
Protocol: as §2

[10] = molecular target: 5-HT7 (Homo sapiens, UniProt P34969); assay: Competitive radioligand binding (NIMH PDSP)
Protocol: as §2

[11] = molecular target: 5-HT1D (Homo sapiens, UniProt P28221); assay: Competitive radioligand binding (NIMH PDSP)
Protocol: as §2

[12] = molecular target: T4, 5-HT1A (Homo sapiens, UniProt P08908); assay: Competitive radioligand binding (NIMH PDSP)
T4 sequence (P08908 1-422): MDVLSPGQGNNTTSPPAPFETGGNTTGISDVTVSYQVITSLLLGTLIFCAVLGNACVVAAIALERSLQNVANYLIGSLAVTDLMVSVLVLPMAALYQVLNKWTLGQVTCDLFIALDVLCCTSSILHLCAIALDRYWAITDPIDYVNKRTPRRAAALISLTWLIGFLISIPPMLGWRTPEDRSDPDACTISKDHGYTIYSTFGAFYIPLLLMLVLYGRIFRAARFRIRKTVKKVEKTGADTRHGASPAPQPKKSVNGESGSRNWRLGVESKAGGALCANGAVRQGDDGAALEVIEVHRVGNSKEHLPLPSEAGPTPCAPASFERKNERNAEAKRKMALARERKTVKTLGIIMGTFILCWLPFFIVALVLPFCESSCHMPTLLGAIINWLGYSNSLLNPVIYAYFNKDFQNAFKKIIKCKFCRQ
Protocol: as §2

[13] = molecular target: T1, 5-HT2A; assay: Competitive radioligand binding (NIMH PDSP)
Protocol: as §2

[14] = molecular target: T5, 5-HT2B (Homo sapiens, UniProt P41595); assay: Ca2+ flux assay, 5-HT2B; type: cell-based; parameters: expressed in transfected cells; details: Ca2+ flux
Protocol: as §1

[15] = tested on: 5-HT2A; assay: Ca2+ flux assay, 5-HT2A; type: cell-based, human; details: Gq/11 Ca2+ mobilization; higher number = skewed towards 5-HT2A
Protocol: as §1

[16] = molecular target: T2, 5-HT2C; assay: Competitive radioligand binding (NIMH PDSP); parameters: expressed in transfected cells
Protocol: as §2

[17] = molecular target: T5, 5-HT2B; assay: Competitive radioligand binding (NIMH PDSP); parameters: expressed in transfected cells
Protocol: as §2

[18] = molecular target: T1, 5-HT2A; assay: Ca2+ flux assay, 5-HT2A; type: cell-based; parameters: expressed in transfected cells
Protocol: as §1

[19] = BRET, mean ± SEM, read-out: 5-HT2A Gq dissociation pEC50 (converted)
[20] = BRET, mean ± SEM, read-out: 5-HT2A β-arrestin recruitment pEC50 (converted)

T1 sequence (P28223 whole entry): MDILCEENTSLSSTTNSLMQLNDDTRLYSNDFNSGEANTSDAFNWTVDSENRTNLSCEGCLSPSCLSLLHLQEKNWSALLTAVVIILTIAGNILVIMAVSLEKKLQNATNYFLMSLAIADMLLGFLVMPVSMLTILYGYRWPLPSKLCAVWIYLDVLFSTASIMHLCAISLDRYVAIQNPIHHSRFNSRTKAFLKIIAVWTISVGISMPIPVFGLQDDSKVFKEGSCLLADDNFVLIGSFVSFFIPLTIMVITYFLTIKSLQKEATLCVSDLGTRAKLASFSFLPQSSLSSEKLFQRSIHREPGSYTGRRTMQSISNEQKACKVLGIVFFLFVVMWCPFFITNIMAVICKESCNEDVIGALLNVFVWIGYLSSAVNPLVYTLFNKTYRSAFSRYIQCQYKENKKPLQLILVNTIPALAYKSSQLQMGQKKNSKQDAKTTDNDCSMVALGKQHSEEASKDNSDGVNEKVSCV
T5 sequence (P41595 whole entry): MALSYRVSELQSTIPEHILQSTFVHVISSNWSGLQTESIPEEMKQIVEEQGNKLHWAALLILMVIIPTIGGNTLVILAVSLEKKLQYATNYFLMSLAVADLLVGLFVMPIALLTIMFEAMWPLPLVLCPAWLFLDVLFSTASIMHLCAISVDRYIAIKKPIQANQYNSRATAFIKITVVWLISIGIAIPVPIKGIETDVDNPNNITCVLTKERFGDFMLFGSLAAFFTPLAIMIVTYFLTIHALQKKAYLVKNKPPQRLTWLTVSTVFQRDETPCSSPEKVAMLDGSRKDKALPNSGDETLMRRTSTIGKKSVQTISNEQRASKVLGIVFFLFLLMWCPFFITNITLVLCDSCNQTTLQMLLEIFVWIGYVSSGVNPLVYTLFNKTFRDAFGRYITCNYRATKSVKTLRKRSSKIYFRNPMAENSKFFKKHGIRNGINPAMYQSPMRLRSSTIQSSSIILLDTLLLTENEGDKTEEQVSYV
Sequence of 5-HT1D (P28221 whole entry, species assumed): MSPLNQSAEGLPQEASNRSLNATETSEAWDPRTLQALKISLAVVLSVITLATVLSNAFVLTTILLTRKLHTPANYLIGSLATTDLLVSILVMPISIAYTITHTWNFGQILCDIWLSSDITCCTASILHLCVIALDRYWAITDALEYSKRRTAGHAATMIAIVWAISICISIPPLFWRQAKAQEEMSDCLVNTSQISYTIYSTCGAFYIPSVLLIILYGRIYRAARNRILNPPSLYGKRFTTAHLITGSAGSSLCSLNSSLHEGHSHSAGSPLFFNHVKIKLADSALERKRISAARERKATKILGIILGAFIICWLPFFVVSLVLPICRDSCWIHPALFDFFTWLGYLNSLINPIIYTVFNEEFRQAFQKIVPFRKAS
Sequence of 5-HT7 (P34969 whole entry, species assumed): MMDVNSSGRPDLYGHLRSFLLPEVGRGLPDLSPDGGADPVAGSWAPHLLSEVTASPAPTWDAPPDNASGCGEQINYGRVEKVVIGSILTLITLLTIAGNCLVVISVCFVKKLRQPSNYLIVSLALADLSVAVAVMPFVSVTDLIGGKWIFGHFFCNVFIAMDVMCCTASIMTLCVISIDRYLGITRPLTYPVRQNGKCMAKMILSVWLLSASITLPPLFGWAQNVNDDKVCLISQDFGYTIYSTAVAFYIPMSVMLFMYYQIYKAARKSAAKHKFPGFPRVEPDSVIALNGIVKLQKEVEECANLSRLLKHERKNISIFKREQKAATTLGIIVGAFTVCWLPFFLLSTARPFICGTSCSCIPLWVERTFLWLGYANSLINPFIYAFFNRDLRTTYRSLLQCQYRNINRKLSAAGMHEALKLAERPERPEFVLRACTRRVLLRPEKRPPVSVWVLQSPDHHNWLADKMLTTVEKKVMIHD
Sequence of 5-HT5a (P47898 whole entry, species assumed): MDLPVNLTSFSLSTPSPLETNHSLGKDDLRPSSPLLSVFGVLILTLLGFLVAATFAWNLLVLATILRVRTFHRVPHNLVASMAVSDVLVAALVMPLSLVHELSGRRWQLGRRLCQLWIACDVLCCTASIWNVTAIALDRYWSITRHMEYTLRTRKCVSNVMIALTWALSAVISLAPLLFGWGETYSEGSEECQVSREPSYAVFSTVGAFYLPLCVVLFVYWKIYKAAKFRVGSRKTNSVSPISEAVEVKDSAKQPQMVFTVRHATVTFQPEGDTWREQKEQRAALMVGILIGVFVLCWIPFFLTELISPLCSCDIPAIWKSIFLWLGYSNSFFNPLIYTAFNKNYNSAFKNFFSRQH
Sequence of 5-HT1B (P28222 whole entry, species assumed): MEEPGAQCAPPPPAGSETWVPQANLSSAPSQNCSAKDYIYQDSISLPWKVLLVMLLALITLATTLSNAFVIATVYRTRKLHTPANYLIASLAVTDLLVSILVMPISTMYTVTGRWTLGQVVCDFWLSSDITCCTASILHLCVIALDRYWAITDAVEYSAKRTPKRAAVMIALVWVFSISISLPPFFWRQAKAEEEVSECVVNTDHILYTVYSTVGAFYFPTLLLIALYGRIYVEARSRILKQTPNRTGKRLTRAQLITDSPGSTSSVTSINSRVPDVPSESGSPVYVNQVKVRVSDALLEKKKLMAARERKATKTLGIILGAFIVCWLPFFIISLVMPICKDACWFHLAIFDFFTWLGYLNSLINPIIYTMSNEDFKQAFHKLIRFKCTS
Sequence of 5-HT6 (P50406 whole entry, species assumed): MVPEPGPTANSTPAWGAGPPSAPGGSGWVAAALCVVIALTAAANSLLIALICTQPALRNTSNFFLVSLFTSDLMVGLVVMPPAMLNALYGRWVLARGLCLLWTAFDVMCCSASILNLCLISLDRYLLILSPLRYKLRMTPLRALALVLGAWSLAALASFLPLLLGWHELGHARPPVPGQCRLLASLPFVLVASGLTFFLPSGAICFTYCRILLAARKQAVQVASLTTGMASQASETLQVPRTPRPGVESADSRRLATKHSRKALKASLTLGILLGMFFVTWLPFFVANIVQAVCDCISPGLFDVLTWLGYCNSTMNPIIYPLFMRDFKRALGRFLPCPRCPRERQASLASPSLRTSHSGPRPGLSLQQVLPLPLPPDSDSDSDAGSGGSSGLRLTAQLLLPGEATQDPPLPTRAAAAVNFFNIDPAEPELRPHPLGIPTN
Sequence of 5-HT1e (P28566 whole entry, species assumed): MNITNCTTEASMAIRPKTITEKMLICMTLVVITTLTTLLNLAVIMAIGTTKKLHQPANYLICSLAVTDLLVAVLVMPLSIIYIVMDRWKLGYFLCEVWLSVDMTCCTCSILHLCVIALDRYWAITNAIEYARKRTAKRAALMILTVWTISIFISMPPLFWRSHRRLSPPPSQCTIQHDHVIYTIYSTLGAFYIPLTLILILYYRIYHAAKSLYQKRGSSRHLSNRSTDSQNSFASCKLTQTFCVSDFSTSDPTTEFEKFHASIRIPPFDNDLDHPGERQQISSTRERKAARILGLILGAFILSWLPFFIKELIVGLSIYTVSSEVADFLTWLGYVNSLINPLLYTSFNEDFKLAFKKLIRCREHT

| Compound | EC50 [1, 19] [nM] | Emax [1] [%] | Ki [2] [nM] | EC50 [3, 20] [nM] | Emax [3] [%] | also measured |
| --- | --- | --- | --- | --- | --- | --- |
| COc1cc(OC)c(OC)cc1CCNCc1cccc2c1oc1ccccc12 [(74), N-(dibenzo-[b, d]-furan-4-ylmethyl)-2-(2,4,5-trimethoxyphenyl)-ethan-1-amine] | 81.3 | 40.2 ± 1.9 | 67.6 | 16.2 | 68.3 ± 3.4 |  |
| COc1cc(OC)c(OC)cc1CCNCc1ccc(-c2ccccc2)s1 [(76), N-((5-phenylthiophen-2-yl)methyl)-2-(2,4,5-trimethoxyphenyl)-ethan-1-amine] |  | 57.4 ± 4.6 | 447 | 91.2 | 78 ± 4 | EC50 [1]: 1070 nM |
| COc1cc(OC)c(OC)cc1CCNCc1cccc(C)c1O [(68)] | 3.24 | 63.4 ± 0.8 | 30.9 | 1.41 | 89.1 ± 2.3 |  |
| COc1ccc(OC)c(CNCCc2cc(OC)c([N+](=O)[O-])cc2OC)c1 [25N-NB-2,5-DiMeO (20)] |  |  |  |  |  | 5-HT2C EC50, nM [4]: No activity; Emax ([4]; read-out: 5-HT2C Emax % 5-HT): < 10%; Ki [5]: > 10000 nM; Ki [6]: > 10000 nM; Ki [7]: > 10000 nM; Ki [8]: > 10000 nM; Ki [9]: > 10000 nM; Ki [10]: > 10000 nM; Ki [11]: > 10000 nM; Ki [12]: 513 nM; Ki [13]: 229 nM; 5-HT2B EC50, nM [14]: No activity; Emax ([14]; read-out: 5-HT2B Emax % 5-HT): < 10%; 5-HT2A/5-HT2c Selectivity Factor ΔLog(Emax/EC50) [15]: 5-HT2A Selective; Ki [16]: 145 nM; Ki [17]: 135 nM; EC50 ([18]; 5-HT2A EC50, nM, Ca2+ flux): 133 nM; Emax ([18]; read-out: 5-HT2A Emax % 5-HT, Ca2+ flux): 72 ± 1% |
| COc1cc(OC)c(OC)cc1CCNCc1cccc(OCc2ccccc2)c1 [(78)] |  | 32.8 ± 4.5 | 251 |  | 50.3 ± 4.1 |  |
| COc1cc(OC)c(OC)cc1CCNCc1ccccc1C1CC1 [(70)] | 3.63 | 97.5 ± 1.5 | 70.8 | 6.92 | 116 ± 4.4 |  |
| COc1cc(OC)c(OC)cc1CCNCc1cccc(C(C)(C)C)c1 [(71)] | 1620 | 38.6 ± 5 | 380 | 1620 | 60.4 ± 5.2 |  |
| COc1cc(OC)c(OC)cc1CCNCc1ccc(-c2ccccc2)o1 [(75)] |  | < 10 | 309 |  | 50.3 ± 4.7 | 5-HT2A Gq dissociation pEC50 ([1]; BRET, mean ± SEM): No activity; EC50 [3]: 891 nM |
| COc1cc(OC)c(OC)cc1CCNCc1ccc(F)c2ccccc12 [(67)] | 22.9 | 41 ± 1.3 | 50.1 | 10.2 | 73.6 ± 3.2 |  |
| COc1cc(OC)c(OC)cc1CCNCc1ccc(-c2cccs2)s1 [(77)] |  | 49 ± 5.1 | 324 |  | 82.5 ± 4.2 |  |
| COc1cc(OC)c(OC)cc1CCNCc1cccc(I)c1F [(72)] | 33.9 | 60.7 ± 1.7 | 49 | 7.08 | 63.5 ± 3.2 |  |
| COc1cccc(COc2ccccc2CNCCc2cc(OC)c(OC)cc2OC)c1 [(79)] |  | < 10 | 158 |  | 33 ± 4.8 | 5-HT2A Gq dissociation pEC50 ([1]; BRET, mean ± SEM): No activity; EC50 [3]: 1120 nM |
| COc1cc(OC)c(OC)cc1CCNCc1c[nH]nc1-c1ccccc1 [(80)] |  | 31.8 ± 2.3 | 302 | 79.4 | 102 ± 3.7 | EC50 [1]: 537 nM |
